Data as given in ChEMBL document CHEMBL1201862, “PubChem BioAssay data set” (2004).
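Compound exposure: 48 hours, 5 concentrations, 96-well plates. GI50 is the concentration that inhibits growth by half.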 Active and inactive are the calls of the source. Cut-off read from the data, not from the text of the source: active = GI50 up to about 1.1 µM and inactive = higher.

Assays:
Assay in all cases: NCI tumour cell line growth inhibition, 48 h
COLO 205 = test system: COLO 205
786-0 = test system: 786-0
MDA-MB-231 = test system: MDA-MB-231
MDA-MB-435 = test system: MDA-MB-435
T47D = test system: T47D
BT-549 = test system: BT-549
SK-MEL-2 = test system: SK-MEL-2
NCI-H226 = test system: NCI-H226
OVCAR-5 = test system: OVCAR-5
EKVX = test system: EKVX
RPMI-8226 = test system: RPMI-8226
SNB-19 = test system: SNB-19
UACC-62 = test system: UACC-62
HOP-62 = test system: HOP-62
HCT-116 = test system: HCT-116
HL-60 = test system: HL-60
HOP-92 = test system: HOP-92
Hs-578T = test system: Hs-578T
CCRF-CEM = test system: CCRF-CEM

Row | Compound | GI50 (COLO 205) | GI50 (786-0) | GI50 (MDA-MB-231) | GI50 (MDA-MB-435) | GI50 (T47D) | GI50 (BT-549) | GI50 (SK-MEL-2) | GI50 (NCI-H226) | GI50 (OVCAR-5) | GI50 (EKVX) | GI50 (RPMI-8226) | GI50 (SNB-19) | GI50 (UACC-62) | GI50 (HOP-62) | GI50 (HCT-116) | GI50 (HL-60) | GI50 (HOP-92) | GI50 (Hs-578T) | GI50 (CCRF-CEM)
1 | O=C(Cn1c2ccc(Br)cc2c2nc3ccccc3nc21)N/N=C/c1ccccc1 | > 100 µM (inactive) | 12.3 µM (inactive) | > 100 µM (inactive) | > 100 µM (inactive) | > 100 µM (inactive) | > 100 µM (inactive) | 83.6 µM (inactive) | > 100 µM (inactive) | > 100 µM (inactive) | > 100 µM (inactive) | > 10 µM (inactive) | 79.3 µM (inactive) | 72.9 µM (inactive) | 19.1 µM (inactive) |  |  |  |  | 
2 | N#C/C(=C\Nc1ccccn1)C(=O)c1ccco1 | > 100 µM (inactive) | > 100 µM (inactive) | > 100 µM (inactive) | > 100 µM (inactive) |  | > 100 µM (inactive) | > 100 µM (inactive) | > 100 µM (inactive) | > 100 µM (inactive) | > 100 µM (inactive) | > 100 µM (inactive) | > 100 µM (inactive) | > 100 µM (inactive) | > 100 µM (inactive) | > 100 µM (inactive) | > 100 µM (inactive) | > 100 µM (inactive) | > 100 µM (inactive) | 
3 | CN(C)C(=O)Oc1ccc(-c2cn3cc(NC(=O)c4ccccc4)ccc3n2)cc1 | 14.3 µM (inactive) | > 100 µM (inactive) | > 100 µM (inactive) | 85.7 µM (inactive) | 21.6 µM (inactive) | 80.4 µM (inactive) | > 100 µM (inactive) | > 100 µM (inactive) | > 100 µM (inactive) | > 100 µM (inactive) | 19.1 µM (inactive) | 50.8 µM (inactive) | > 100 µM (inactive) | > 100 µM (inactive) | > 100 µM (inactive) |  | > 100 µM (inactive) |  | 99.5 µM (inactive)
4 | O/N=C\c1c(O)ccc2ccccc12 | 55.3 µM (inactive) | 46.2 µM (inactive) | 46.3 µM (inactive) | 65 µM (inactive) | 27.8 µM (inactive) |  |  | 33.3 µM (inactive) | > 100 µM (inactive) | 33 µM (inactive) | 49.8 µM (inactive) | > 100 µM (inactive) | 41 µM (inactive) | 70.1 µM (inactive) | 38.9 µM (inactive) | 14.7 µM (inactive) | 73.8 µM (inactive) | > 100 µM (inactive) | 47.2 µM (inactive)
5 | Clc1nss/c1=N/c1nonc1-c1ccccc1 | 20.4 µM (inactive) | 30.5 µM (inactive) | 14 µM (inactive) | 38.6 µM (inactive) |  | 29.6 µM (inactive) | 34.9 µM (inactive) | 29.6 µM (inactive) | 19.5 µM (inactive) | 37.4 µM (inactive) | 27.2 µM (inactive) | 55.6 µM (inactive) | 33.3 µM (inactive) | 51.3 µM (inactive) | 34.9 µM (inactive) | 3.62 µM (inactive) | 40.2 µM (inactive) |  | 17.9 µM (inactive)
6 | CCCCCCN1C(=O)CC(=O)N(CCCCCC)S1(=O)=O | 17.9 µM (inactive) | 18.5 µM (inactive) | 17.1 µM (inactive) | 22.3 µM (inactive) | 64.3 µM (inactive) |  | 12.7 µM (inactive) | 26.6 µM (inactive) | 19.8 µM (inactive) | 20.8 µM (inactive) | 24.7 µM (inactive) | 41.9 µM (inactive) | 17.3 µM (inactive) | 18.9 µM (inactive) | 29.6 µM (inactive) | 24.8 µM (inactive) | 11.6 µM (inactive) | 22 µM (inactive) | 21.7 µM (inactive)
7 | CCOC(=O)C12CCC(=O)N1N(C)c1ncccc1N2 (configuration not stated) | > 100 µM (inactive) | > 100 µM (inactive) | > 100 µM (inactive) | > 100 µM (inactive) | > 100 µM (inactive) | > 100 µM (inactive) | < 0.01 µM (active) | > 100 µM (inactive) | > 100 µM (inactive) | > 100 µM (inactive) | > 100 µM (inactive) | > 100 µM (inactive) | > 100 µM (inactive) | > 100 µM (inactive) | > 100 µM (inactive) |  |  |  | > 100 µM (inactive)
8 | S=C1Cc2c([nH]c3ccccc23)-c2ccccc2N1 | > 100 µM (inactive) | 31.3 µM (inactive) | 42.9 µM (inactive) | > 100 µM (inactive) | > 100 µM (inactive) |  |  | 29.5 µM (inactive) | > 100 µM (inactive) | 40.4 µM (inactive) | > 100 µM (inactive) | 34.4 µM (inactive) | 72.3 µM (inactive) | 25.9 µM (inactive) | 25.1 µM (inactive) | > 100 µM (inactive) | 32.3 µM (inactive) | 61 µM (inactive) | > 100 µM (inactive)
9 | O=C(OC1C2OC(=O)c3cc(O)c(O)c(O)c3Oc3cc4c(c(O)c3O)-c3c(cc(O)c(O)c3O)C(=O)OCC3OC(O)C(OC(=O)c5cc(O)c(O)c(O)c5Oc5cc6c(c(O)c5O)-c5c(cc(O)c(O)c5O)C(=O)OC1C(COC6=O)OC2O)C(OC(=O)c1cc(O)c(O)c(O)c1)C3OC4=O)c1cc(O)c(O)c(O)c1 (configuration not stated) | 5.87 µM (inactive) | 21 µM (inactive) | 19.6 µM (inactive) | 21.4 µM (inactive) | > 100 µM (inactive) |  |  | 22.4 µM (inactive) | 40.1 µM (inactive) | 12.5 µM (inactive) | 4.59 µM (inactive) | 17.6 µM (inactive) | 28.4 µM (inactive) | 23.4 µM (inactive) | 16.4 µM (inactive) | 16.2 µM (inactive) | 19 µM (inactive) | 32.3 µM (inactive) | 3.61 µM (inactive)
10 | CC(NC1=NCCO1)c1cccc([N+](=O)[O-])c1 (configuration not stated) | > 100 µM (inactive) | > 100 µM (inactive) | > 100 µM (inactive) | > 100 µM (inactive) | > 100 µM (inactive) |  | > 100 µM (inactive) | > 100 µM (inactive) | > 100 µM (inactive) | > 100 µM (inactive) | > 100 µM (inactive) | > 100 µM (inactive) | > 100 µM (inactive) | > 100 µM (inactive) | > 100 µM (inactive) | > 100 µM (inactive) | 30 µM (inactive) | > 100 µM (inactive) | > 100 µM (inactive)
11 | O=P(O)(CN1CCN(CP(=O)(O)c2ccccc2)CCN(CP(=O)(O)c2ccccc2)CC1)c1ccccc1 | 69.3 µM (inactive) | 78 µM (inactive) |  | 93.1 µM (inactive) | > 100 µM (inactive) | > 100 µM (inactive) |  | > 100 µM (inactive) | > 100 µM (inactive) | > 100 µM (inactive) | 51.4 µM (inactive) | > 100 µM (inactive) | > 10 µM (inactive) | > 100 µM (inactive) | 36.8 µM (inactive) | > 100 µM (inactive) |  |  | > 100 µM (inactive)
12 | Cc1ccc(Nc2nc3c(=O)n(C)c(=O)n(C)c3nc2Nc2ccc(C)cc2)cc1 | 4.67 µM (inactive) | 6.04 µM (inactive) | 13.7 µM (inactive) | 12.1 µM (inactive) | 15.5 µM (inactive) |  | 17.8 µM (inactive) | 28.8 µM (inactive) | 16.4 µM (inactive) | 16 µM (inactive) | 7.62 µM (inactive) | 31.3 µM (inactive) | 12.3 µM (inactive) | 18.9 µM (inactive) | 9.27 µM (inactive) | 9.66 µM (inactive) | 11.4 µM (inactive) | 25.8 µM (inactive) | 2.3 µM (inactive)
13 | Cc1ccc(Cc2cc(N3CCN(c4cccc(Cl)c4)CC3)nnc2C)cc1 | 29.6 µM (inactive) | 45.2 µM (inactive) | > 100 µM (inactive) | 27.7 µM (inactive) | 24.3 µM (inactive) | > 100 µM (inactive) | 96.2 µM (inactive) |  | > 100 µM (inactive) | 34.4 µM (inactive) | 17.8 µM (inactive) | > 100 µM (inactive) | > 100 µM (inactive) | > 100 µM (inactive) | 22.5 µM (inactive) |  |  | 54 µM (inactive) | 
14 | CC12OC3(C(O)C1O)C(C(=O)O[C@H]3CO[Si](C)(C)C(C)(C)C)C2S(=O)(=O)c1ccccc1 (some centres not stated) |  | 71.1 µM (inactive) | 60.3 µM (inactive) | 34.4 µM (inactive) | 36.1 µM (inactive) |  | 88.7 µM (inactive) | 5.21 µM (inactive) | > 100 µM (inactive) | 46.9 µM (inactive) | 27.1 µM (inactive) | 40 µM (inactive) | 16.1 µM (inactive) | > 100 µM (inactive) | 61.5 µM (inactive) | 25.9 µM (inactive) | 38.3 µM (inactive) | 30 µM (inactive) | 
15 | CCOC(=O)C(NC(=O)NC(C(=O)OCC)C(=O)OCC)C(=O)OCC |  | > 100 µM (inactive) |  | 98.2 µM (inactive) |  | > 100 µM (inactive) | > 100 µM (inactive) | > 100 µM (inactive) | > 100 µM (inactive) | > 100 µM (inactive) | > 100 µM (inactive) | > 100 µM (inactive) | > 100 µM (inactive) | > 100 µM (inactive) | > 100 µM (inactive) |  | > 100 µM (inactive) | > 100 µM (inactive) | 
16 | CCn1c(=O)c2c(=O)[nH][nH]c2c2ccccc21 | > 100 µM (inactive) | > 100 µM (inactive) | > 100 µM (inactive) | > 100 µM (inactive) |  | > 100 µM (inactive) |  | > 100 µM (inactive) | > 100 µM (inactive) | > 100 µM (inactive) | > 100 µM (inactive) | > 100 µM (inactive) |  | > 100 µM (inactive) | > 100 µM (inactive) | > 100 µM (inactive) | > 100 µM (inactive) | > 100 µM (inactive) | > 100 µM (inactive)
